For test [1], the system named is HL60 (leukemia). Nature of the test: In vitro cytotoxic activity MTT assay, HL60. In kind it is cell-based. To be noted: Homo sapiens, HL-60, cells exposed for 96 hours, read-out: Cytotoxicity activity IC50 (50% inhibition of cell proliferation). How it is done:
(§1) Compounds 1-16 were screened for their in vitro cytotoxic activity utilizing a 3-(4,5-dimethyl-thiazol-2-yl)-2,5-diphenyltetrazolium bromide (MTT) assay against selected cancer human cell lines consisting of PC3 (prostate), HCT116 (colon), A375 (melanoma), H1299 (lung), MIAPaCa-2 (pancreas), HL60 (leukemia), MCF7 (breast), MDA-MB-231 (breast) (T. Mosmann, J. Immunol. Meth., 1983, 65, 55-63). The cells were cultured at 37° C. in RMPI1640 medium supplemented with 10% fetal bovine serum, 50 IU/mL penicillin, and 50 μg/mL streptomycin in a 5% CO2 incubator. All cells were sub-cultured 3 times/week by trypsinisation. Viable cells were seeded and allowed to adhere for 12 hours before a test drug was added in 96-well plates at an initial density of 1.0×10^5 cells/mL. Tumor cell lines were separately exposed to various concentrations of the tested compounds followed by incubation at a temperature of 37° C. during 96 hours inside a medium of fresh RMPI 1640. Cells were subsequently incubated at 37° C. using MTT at 0.5 mg/mL during 4 hours. After removal of supernatant, formazan crystals were dissolved in isopropanol and the optical density was measured at 570 nm. CX-4945 was used as a positive control.
A general note: Formazan colour is commonly taken as a measure of viable cells.

Test [2] has as its system MIAPaCa-2 (pancreas). Nature of the test: In vitro cytotoxic activity MTT assay, MIAPaCa-2. It is filed as cell-based. To be noted: Homo sapiens, MIA PaCa-2, cells exposed for 96 hours, read-out: Cytotoxicity activity IC50 (50% inhibition of cell proliferation). As for the experimental part: as §1
For test [3], the system named is H1299 (lung). Nature of the test: In vitro cytotoxic activity MTT assay, H1299. It is filed as cell-based. To be noted: Homo sapiens, NCI-H1299, cells exposed for 96 hours, read-out: Cytotoxicity activity IC50 (50% inhibition of cell proliferation). How it is done:
as §1

In test [4] the test system is HCT116 (colon). Nature of the test: In vitro cytotoxic activity MTT assay, HCT116. In kind it is cell-based. To be noted: Homo sapiens, HCT-116, cells exposed for 96 hours, read-out: Cytotoxicity activity IC50 (50% inhibition of cell proliferation). How it is done: as §1
Test [5] deals with MDA-MB-231 (breast). Nature of the test: In vitro cytotoxic activity MTT assay, MDA-MB-231. It is filed as cell-based. To be noted: Homo sapiens, cells exposed for 96 hours, read-out: Cytotoxicity activity IC50 (50% inhibition of cell proliferation). How it is done: as §1
For test [6], the system named is MCF7 (breast). Nature of the test: In vitro cytotoxic activity MTT assay, MCF7. In kind it is cell-based. To be noted: Homo sapiens, cells exposed for 96 hours, read-out: Cytotoxicity activity IC50 (50% inhibition of cell proliferation). How it is done:
as §1

For test [7], the system named is A375 (melanoma). Nature of the test: In vitro cytotoxic activity MTT assay, A375. It is filed as cell-based. To be noted: Homo sapiens, A-375, cells exposed for 96 hours, read-out: Cytotoxicity activity IC50 (50% inhibition of cell proliferation). As for the experimental part: as §1
The target of test [8] is T1, recombinant human CK2 (RRBB-holoenzyme) (Homo sapiens, UniProt P68400).
T1 construct: purchased Millipore
T1 sequence (P68400 whole entry): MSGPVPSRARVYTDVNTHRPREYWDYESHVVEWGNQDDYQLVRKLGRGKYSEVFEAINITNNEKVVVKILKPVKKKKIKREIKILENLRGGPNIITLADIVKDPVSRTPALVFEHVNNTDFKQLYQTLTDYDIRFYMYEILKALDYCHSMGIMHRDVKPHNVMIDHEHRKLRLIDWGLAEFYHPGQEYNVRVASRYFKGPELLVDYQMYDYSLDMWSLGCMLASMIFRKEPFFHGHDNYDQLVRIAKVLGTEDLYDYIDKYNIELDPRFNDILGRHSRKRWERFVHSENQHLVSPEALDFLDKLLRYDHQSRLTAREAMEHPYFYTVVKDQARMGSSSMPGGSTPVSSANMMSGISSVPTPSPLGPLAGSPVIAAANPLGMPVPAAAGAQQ
T1 sequence (P67870 whole entry partner): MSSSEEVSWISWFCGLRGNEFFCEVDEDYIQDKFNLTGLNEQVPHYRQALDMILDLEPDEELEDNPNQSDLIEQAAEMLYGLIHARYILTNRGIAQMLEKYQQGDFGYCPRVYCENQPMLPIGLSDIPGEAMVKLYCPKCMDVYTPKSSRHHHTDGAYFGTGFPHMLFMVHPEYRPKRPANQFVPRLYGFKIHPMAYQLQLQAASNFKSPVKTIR
Nature of the test: CK2 Kinase Assay (33P-ATP, filter plate). To be noted: recombinant human CK2, final ATP concentration 15 μM, 10 min at 30° C.; read-out: protein kinase CK2 inhibition IC50. It is filed as biochemical. As for the experimental part:
CK2 Kinase Assay was conducted using the protocol as described in Pierre F. et al; J. Med. Chem. 2011, 54, 635-654. The tested compounds in aqueous solution were added at a volume of 10 μL to a reaction mixture comprising 10 μL of assay dilution buffer (ADB; 20 mM MOPS, pH 7.2, 25 mM B-glycerol phosphate, 5 mM EGTA, 1 mM sodium orthovanadate, and 1 mM dithiothreitol), 10 μL of substrate peptide (RRRDDDSDDD, dissolved in ADB at a concentration of 1 mM), 10 μL of recombinant human CK2 (RRBB-holoenzyme, 25 ng dissolved in ADB; Millipore). Reactions were initiated by the addition of 10 μL of ATP solution (90% 75 mMMgCl2, 75 μM ATP (final ATP concentration: 15 μM) dissolved in ADB; 10% [γ-33P] ATP (stock 1mCi/100 μL; 3000 Ci/mmol (Perkin-Elmer) and maintained for 10 min at 30° C. The reactions were quenched with 100 μL of 0.75% phosphoric acid and then transferred to and filtered through a phosphor cellulose filter plate (Millipore). After washing each well five times with 0.75% phosphoric acid, the plate was dried under vacuum for 5 min and, following the addition of 15 μL of scintillation fluid to each well, the residual radioactivity was measured using a Wallac luminescence counter. The IC50 values were derived from eight concentrations of test inhibitors.

Test [9] relates to PC3 (prostate). Nature of the test: In vitro cytotoxic activity MTT assay, PC3. It is filed as cell-based. To be noted: Homo sapiens, Prostate cell, cells exposed for 96 hours, read-out: Cytotoxicity activity IC50 (50% inhibition of cell proliferation). How it is done:
as §1

The structures appear in SMILES notation.

With `O=C(O)c1ccn2c1nc(Nc1cccc(Cl)c1)c1ccncc12` [Compound 1, 5-((3-chlorophenyl)amino)pyrido[4,3-e]pyrrolo[1,2-a]pyrimidine-7-carboxylic acid], the IC50 in test [1] was determined as 3500 nM; in [2], 1300 nM; in [3] it was 1900 nM; in test [4], 2100 nM; in test [5], 4200 nM; in [6] it was 5600 nM. Moreover, the IC50 in test [7] worked out at 4600 nM; in test [8], 89 nM; in test [9], 2400 nM.
